Laboratory results as given in US10231453B2, “5-substituted imidazole derivatives” (BAYER CROPSCIENCE AKTIENGESELLSCHAFT, priority 2015, dated 2019).

Assays:
[1] = tested on: Fusarium nivale (var. majus); test: In vivo preventive Fusarium nivale (var. majus) test (wheat), Example O; details: Microdochium nivale, 120 h, 500 ppm of active ingredient, preventive spray, evaluated 5 days after inoculation, read-out: efficacy
Description: After the spray coating has been dried, the plants are slightly injured by using a sandblast and afterwards they are sprayed with a conidia suspension of Fusarium nivale (var. majus).

Pyrenophora teres = test: In vivo preventive test on Pyrenophora teres (net blotch on barley), Examples D, Q2 and R4; details: Pyrenophora teres, 336 h, 500 ppm of active ingredient, preventive spray, evaluated 14 days after inoculation, read-out: efficacy
Puccinia recondita = test: In vivo preventive test on Puccinia recondita (brown rust on wheat), Examples C and R3; details: Puccinia recondita, 264 h; 500 ppm of active ingredient; wheat, preventive spray, evaluated 11 days after inoculation; read-out: efficacy
[2] = tested on: Blumeria graminis fsp. hordei; test: In vivo preventive Blumeria test (barley), Example K; details: 168 h, 500 ppm of active ingredient, preventive spray, evaluated 7 days after inoculation, read-out: efficacy
Description: After the spray coating has been dried, the plants are dusted with spores of Blumeria graminis fsp. hordei.

Uromyces appendiculatus = test: In vivo preventive test on Uromyces appendiculatus (bean rust), Examples G and R7; details: 264 h, 500 ppm of active ingredient, bean, preventive spray, evaluated 11 days after inoculation, read-out: efficacy
Septoria tritici = test: In vivo preventive test on Septoria tritici (leaf spot on wheat), Examples E, Q3 and R5; details: Zymoseptoria tritici, 576 h, 500 ppm of active ingredient; wheat, preventive spray, evaluated 24 days after inoculation; read-out: efficacy
Alternaria brassicae = test: In vivo preventive test on Alternaria brassicae (leaf spot on radish), Examples A and R1; details: Alternaria brassicae, 144 h, 500 ppm of active ingredient, preventive spray, evaluated 6 days after inoculation, read-out: efficacy
[3] = Measurement of LogP values by HPLC on reversed phase columns (EEC directive 79/831 Annex V.A8); format: physicochemical; details: method [a]: LC-UV, acidic range, 0.1% formic acid in water and acetonitrile as eluent; Table 1
Procedure: Measurement of Log P values was performed as outlined above.

Sphaerotheca fuliginea = test: In vivo preventive test on Sphaerotheca fuliginea (powdery mildew on cucurbits), Examples F and R6; details: Podosphaera fuliginea, 360 h; 500 ppm of active ingredient; gherkin, preventive spray, evaluated 15 days after inoculation; read-out: efficacy
Pyricularia oryzae = test: whole plant or invertebrate; format: in vivo; details: 192 h, read-out: efficacy
Leptosphaeria nodorum = test: In vivo preventive Leptosphaeria nodorum test (wheat), Example N; details: Parastagonospora nodorum, 192 h, 500 ppm of active ingredient, preventive spray, evaluated 8 days after inoculation, read-out: efficacy
Description: After the spray coating has been dried, the plants are sprayed with a spore suspension of Leptosphaeria nodorum.

Phakopsora pachyrhizi = test: In vivo preventive Phakopsora test (soybeans), Example I; details: 168 h, 100 ppm of active ingredient, preventive spray, evaluated 7 days after inoculation, read-out: efficacy
Alternaria solani = test: In vivo preventive Alternaria test (tomatoes), Example H; details: 72 h, 100 ppm of active ingredient, preventive spray, evaluated 3 days after inoculation, read-out: efficacy
Botrytis cinerea = test: In vivo preventive test on Botrytis cinerea (grey mould) on gherkin, Examples B, Q1 and R2; details: Botrytis cinerea, 500 ppm of active ingredient, preventive spray, evaluated 4 to 5 days after inoculation, read-out: efficacy
Venturia inaequalis = test: In vivo preventive Venturia test (apples), Example J; details: 240 h, read-out: efficacy
Procedure: After the spray coating has dried on, the plants are inoculated with an aqueous conidia suspension of the causal agent of apple scab (Venturia inaequalis) and then remain for 1 day in an incubation cabinet at approximately 20° C. and a relative atmospheric humidity of 100%.
The plants are then placed in a greenhouse at approximately 21° C. and a relative atmospheric humidity of approximately 90%.
The test is evaluated 10 days after the inoculation.

Fusarium graminearum = test: whole plant or invertebrate; format: in vivo; details: in Hordeum vulgare, 120 h, read-out: efficacy

Structure (SMILES)	pest or weed control at 500 ppm [1] [%]	pest or weed control at 500 ppm (Pyrenophora teres) [%]	pest or weed control at 500 ppm (Puccinia recondita) [%]	pest or weed control at 500 ppm [2] [%]	pest or weed control at 500 ppm (Uromyces appendiculatus) [%]	pest or weed control at 500 ppm (Septoria tritici) [%]	pest or weed control at 500 ppm (Alternaria brassicae) [%]	chromatographic logP [3]	pest or weed control at 500 ppm (Sphaerotheca fuliginea) [%]	pest or weed control at 500 ppm (Pyricularia oryzae) [%]	pest or weed control at 500 ppm (Leptosphaeria nodorum) [%]	pest or weed control at 100 ppm (Phakopsora pachyrhizi) [%]	pest or weed control at 100 ppm (Alternaria solani) [%]	pest or weed control at 500 ppm (Botrytis cinerea) [%]	pest or weed control at 100 ppm (Venturia inaequalis) [%]	pest or weed control at 500 ppm (Fusarium graminearum) [%]
COC(=O)c1cncn1CC(O)(Cc1ccccc1Cl)C1(Cl)CC1 (stereo not drawn) [Example I-01]	70 to 79	90 to 100	90 to 100	90 to 100	90 to 100	90 to 100	80 to 89	2.82	90 to 100							
OC(Cc1c(Cl)ccnc1Cl)(Cn1cncc1Cl)C1(Cl)CC1 (stereo not drawn) [Example I-11]	80 to 89	80 to 89	80 to 89		90 to 100	90 to 100		2.02	90 to 100	80 to 89	80 to 89					
OC(Cc1ccccc1F)(Cn1cncc1Br)C1(Cl)CC1 (stereo not drawn) [Example I-33]		80 to 89	80 to 89	90 to 100	90 to 100	90 to 100	90 to 100	2.1	90 to 100		90 to 100	90 to 100	90 to 100	90 to 100	90 to 100	
N#Cc1cncn1CC(O)(Cc1ccc(Br)cc1Cl)C1(Cl)CC1 (stereo not drawn) [Example I-41]	80 to 89		90 to 100	90 to 100	90 to 100	90 to 100		3.52	90 to 100		70 to 79					90 to 100
OC(Cc1ccc(Br)cc1F)(Cn1cncc1Cl)C1(Cl)CC1 (stereo not drawn) [Example I-44]		90 to 100	80 to 89	90 to 100	90 to 100	90 to 100		2.64	90 to 100	70 to 79	80 to 89	90 to 100	90 to 100	90 to 100	90 to 100	70 to 79
N#Cc1cncn1CC(O)(Cc1cccc(Cl)c1Cl)C1(Cl)CC1 (stereo not drawn) [Example I-49]	80 to 89	90 to 100	90 to 100	90 to 100	90 to 100	90 to 100		3.25	90 to 100	80 to 89	80 to 89					70 to 79
N#Cc1cncn1CC(O)(Cc1ccnc(Cl)c1Cl)C1(Cl)CC1 (stereo not drawn) [Example I-50]	90 to 100	80 to 89	80 to 89	90 to 100	90 to 100	90 to 100		2.47	90 to 100	70 to 79		80 to 89	70 to 79		80 to 89	
OC(Cc1ccncc1Cl)(Cn1cncc1Cl)C1(Cl)CC1 (stereo not drawn) [Example I-72]	90 to 100	80 to 89	80 to 89	90 to 100	90 to 100	90 to 100		1.52	90 to 100	90 to 100	90 to 100			70 to 79		70 to 79
N#Cc1cncn1CC(O)(Cc1ccccc1C(F)(F)F)C1(Cl)CC1 (stereo not drawn) [Example I-88]	80 to 89	90 to 100	90 to 100	90 to 100	90 to 100	90 to 100		3.15	90 to 100							90 to 100
N#Cc1cncn1CC(O)(Cc1ccc(F)c(F)c1)C1(Cl)CC1 (stereo not drawn) [Example I-109]	80 to 89	90 to 100	90 to 100	90 to 100	90 to 100	90 to 100		2.78	90 to 100							90 to 100
N#Cc1cncn1CC(O)(Cc1ccnc(Cl)c1F)C1(Cl)CC1 (stereo not drawn) [Example I-152]	90 to 100	70 to 79	90 to 100	90 to 100	90 to 100	90 to 100		2.25	90 to 100		70 to 79					70 to 79
N#Cc1cncn1CC(O)(Cc1ccc(F)cc1Cl)C1(Cl)CC1 (stereo not drawn) [Example I-154]	90 to 100		90 to 100	90 to 100	90 to 100	90 to 100		3	90 to 100	70 to 79	90 to 100			80 to 89		90 to 100
OC(Cc1ccncc1F)(Cn1cncc1Cl)C1(Cl)CC1 (stereo not drawn) [Example I-164]	80 to 89	80 to 89	80 to 89	90 to 100	90 to 100	90 to 100		1.46	90 to 100	70 to 79				90 to 100		
